From PMC7229567, “Comparative Pharmacokinetics of Geniposidic Acid, Genipin-1-β-Gentiobioside, Geniposide, Genipin, and Crocetin in Rats after Oral Administration of Crude Gardeniae Fructus and Its Three Processed Products Using LC-MS/MS” (Evidence-based Complementary and Alternative Medicine : eCAM, 2020)
Like-named read-outs stand apart in the source and are kept apart here.

What was measured:
[1] = Pharmacokinetics in rat plasma after oral administration of CGF, SGF, GCGF and GIGF extracts (LC-MS/MS); details: for Cmax / half-life / Tmax: male, Sprague-Dawley, rat, plasma, po, 0.75 mL/kg; for Cmax: C max; for Cmax / Tmax / C max / T 1/2 / T max / AUC(0–t24) ratio relative to CGF: rat plasma; for Cmax / half-life / Tmax / C max / T 1/2 / T max: n = 6, mean ± SD; for half-life: T 1/2, rat plasma; for Tmax: T max; for AUC(0–t24) ratio relative to CGF: oral
Description: (§1) The LC-ESI-MS/MS system is composed of an Agilent 1200 series LC system (Agilent Technologies, USA) including a binary pump, a vacuum degasser unit, an autosampler, and an API 3200 triple quadrupole mass Spectrometer with an ESI source (Concord, Ontario, Canada). Data was acquired by Analyst 1.4.2 software (AB MDS Sciex).
(§2) The Agilent Eclipse plus C18 (4.6 × 100 mm, 1.8 μm) column with a guard column was used to separate multiple ingredients. The mobile phases were methanol (A) and water (B) with a gradient elution of 3–36% A at 0–3 min, 36–36% A at 3–15 min, 36–97% A at 15–16 min, and 97–97% A at 16–26 min, then back from 97% to 3% balanced for 10 min. The flow rate was set at 0.3 mL/min and the column temperature was set at 30°C. The injection volume was 5 μL.
(§3) The detection was operated in Multiple Reaction Monitoring (MRM) mode. The source parameters were as follows: curtain gas, collision gas, ion spray voltage, temperature, ion source gas 1, and ion source gas 2 were set at 20 psi, 5 psi, 5500 V, 450°C, 40 psi, and 40 psi, respectively. Nitrogen was the only gas used in the experiment.
(§4) A total of 24 male Sprague-Dawley rats (weight: 220–250 g) were obtained from animal center of Tianjin University of Traditional Chinese Medicine (Tianjin, China). Those rats were randomly divided into four groups (CGF, SGF, GCGF, and GIGF groups) and were housed in an environmentally controlled room (temperature 20–25°C, humidity 60 ± 5%). The rats were allowed free accessibility to food and water in the first week. They were fasted for 12 h before the experiment with water taken freely. The animal experiments were according to the Guidelines for the Care and Use of Laboratory Animals and were approved by the Animal Ethics Committee of Tianjin University of Traditional Chinese Medicine. The rats were randomly divided into four groups. Six rats in each group were separately given single dose of 0.75 mL/kg (0.9 g·kg herbal medicine) extract solution of four kinds of GFs vial oral administration. Blood samples (about 300 μL) were collected at 0, 0.08, 0.25, 0.5, 1, 2, 4, 6, 8, 10, 12, 14, and 24 h. The blood samples were collected in heparinized tubes and immediately centrifuged at 6000 rpm for 10 min at 4°C. The plasma samples were stored at −80°C until analysis.
(§5) The plasma sample (100 μL) was spiked with 20 μL IS working solution and 10 μL formic acid in an Eppendorf tube. Samples were vortex for 30 s, and then 1 mL acetonitrile was added to precipitate protein. Then samples were vortexed for 2 min and the tubes were centrifuged at 14000 rpm for 10 min. The upper organic phase was transferred into a new tube and evaporated to dryness under a flow of nitrogen gas. The residue was reconstituted with 50% methanol 100 μL. After centrifuging at 14000 rpm for 10 min, the supernatant was transferred into an autosampler vial and a volume of 5 μL was injected into the HPLC-ESI-MS/MS for analysis.
(§6) The pharmacokinetic parameters were calculated using a Drug and Statistics 1.0 (DAS 1.0) software (Medical College of Wannan, China). The pharmacokinetic parameters included time of maximum concentration (Tmax), maximum plasma concentration (Cmax), elimination half-life (T1/2), and area under concentrations curve (AUC0–t and AUC0–∞). All values were expressed as mean ± SD. A paired t test was used to test the difference among these groups.

[2] = Stability of the analytes in rat plasma QC samples under storage conditions; assay type: in vitro ADME; details: for Freeze-thaw cycles Remain: three freeze-thaw cycles
Protocol: Quality control (QC) samples containing geniposidic acid, geniposide, genipin-1-β-gentiobioside, genipin, and crocetin were prepared at LLOQ (10 ng/mL), low (30 ng/mL), medium (300 ng/mL), and high concentrations (3000 ng/mL), spiking with appropriate standard solutions with blank plasma to establish calibration curve and method validation. The samples were prepared by the same procedures for plasma samples as described below. The stability of 5 components in the plasma was obtained by evaluating QC samples at four concentration levels with three replicates in different conditions. The QC samples were kept at room temperature for 12 h to determine the short-term stability. Freeze-thaws stability was tested after three freeze-thaw (−80°C at room temperature) on three consecutive days. Long-term stability was tested by evaluating QC samples stored at −80°C for one month. The stability of the five components in rat plasma was determined by evaluating QC samples stored at different temperature and timing conditions. All the components were stable in the autosampler for 24 h, after three freeze-thaw cycles and at a month at −80°C.

[3] = in vivo, po
Description: as §1, §2, §3, §4, §5, §6

[4] = single oral dose of CGF extract 0.75 mL/kg
[5] = single oral dose of GCGF extract 0.75 mL/kg
[6] = single oral dose of GIGF extract 0.75 mL/kg
[7] = single oral dose of SGF extract 0.75 mL/kg

Row | Compound | Cmax [1, 4] | Cmax [1, 5] | Cmax [1, 7] | half-life [1, 4] | half-life [1, 7] | Tmax [1, 4] | Tmax [1, 5] | Tmax [1, 7] | At −80°C for a month Remain ([2]; 10 ng/mL) | Autosampler for 24 h Remain ([2]; 10 ng/mL) | Freeze-thaw cycles Remain ([2]; 10 ng/mL) | At −80°C for a month Remain ([2]; 30 ng/mL) | Autosampler for 24 h Remain ([2]; 30 ng/mL) | Freeze-thaw cycles Remain ([2]; 30 ng/mL) | At −80°C for a month Remain ([2]; 300 ng/mL) | Autosampler for 24 h Remain ([2]; 300 ng/mL) | Freeze-thaw cycles Remain ([2]; 300 ng/mL) | At −80°C for a month Remain ([2]; 3000 ng/mL) | Autosampler for 24 h Remain ([2]; 3000 ng/mL) | Freeze-thaw cycles Remain ([2]; 3000 ng/mL) | also measured
1 | CC(/C=C/C=C(\C)C(=O)O)=C\C=C\C=C(C)\C=C\C=C(/C)C(=O)O [Crocetin] | 165 ± 52.9 ng/mL | 163 ± 76.4 ng/mL | 153 ± 81.9 ng/mL | 41.6 ± 57.6 h | 56.2 ± 43 h | 7.3 ± 3.93 h | 6.43 ± 5.02 h | 6.61 ± 4.05 h | 98.4% | 97.9% | 102% | 101% | 99.9% | 95.3% | 105% | 96.3% | 98.6% | 103% | 98.9% | 106% | Cmax [1, 6]: 91.2 ± 35.6 ng/mL; half-life [1, 5]: 12.8 ± 6.64 h; half-life [1, 6]: 31.8 ± 29.3 h; Tmax [1, 6]: 1.29 ± 2.31 h
2 | COC(=O)C1=CO[C@@H](O[C@@H]2O[C@H](CO[C@@H]3O[C@H](CO)[C@@H](O)[C@H](O)[C@H]3O)[C@@H](O)[C@H](O)[C@H]2O)[C@@H]2C(CO)=CC[C@H]12 [Genipin-1-β-gentiobioside] |  |  |  |  |  |  |  |  | 95.8% | 99.3% | 104% | 96.3% | 100% | 105% | 95.1% | 101% | 101% | 95.1% | 90.7% | 103% | C max [1, 4]: 149.90 ± 132.07 ng/mL; T 1/2 [1, 4]: 0.72 ± 0.25 h; T max [1, 4]: 0.55 ± 0.33 h; C max [1, 5]: 102.92 ± 58.15 ng/mL; T 1/2 [1, 5]: 0.78 ± 0.32 h; T max [1, 5]: 0.78 ± 0.20 h; C max [1, 6]: 62.94 ± 16.81 ng/mL; T 1/2 [1, 6]: 0.91 ± 0.36 h; T max [1, 6]: 1.05 ± 0.37^∗# h; C max [1, 7]: 79.08 ± 39.47 ng/mL; T 1/2 [1, 7]: 0.61 ± 0.18 h; T max [1, 7]: 0.61 ± 0.31 h
3 | COC(=O)C1=CO[C@@H](O)[C@@H]2C(CO)=CC[C@H]12 [Genipin] | 76.4 ± 40.9 ng/mL | 68.5 ± 19.4 ng/mL | 98 ± 41.8 ng/mL | 3.42 ± 1.94 h | 1.39 ± 0.88 h | 1.11 ± 0.4 h | 1.1 ± 0.52 h | 1 ± 0.55 h | 108% | 95.4% |  | 103% | 104% | 95.3% | 105% | 90.6% | 95.9% | 101% | 92.6% | 100% | Detection in rat plasma ([1]; after administration of the GIGF extract, LLOQ 10 ng/mL): not detected; half-life [1, 5]: 1.39 ± 0.98 h
4 | COC(=O)C1=CO[C@@H](O[C@@H]2O[C@H](CO)[C@@H](O)[C@H](O)[C@H]2O)[C@@H]2C(CO)=CC[C@H]12 [Geniposide] | 1070 ± 598 ng/mL | 581 ± 241 ng/mL | 455 ± 160 ng/mL | 3.21 ± 2.31 h | 1.61 ± 0.63 h | 1.54 ± 1.3 h | 0.86 ± 0.13 h | 0.89 ± 0.72 h | 99.2% | 102% | 97.5% | 98.4% | 95.1% | 92.8% | 94.8% | 96.3% | 93.1% | 92.8% | 91.6% | 95.0% | Cmax [1, 6]: 212 ± 109 ng/mL; half-life [1, 6]: 1.08 ± 0.45 h; Tmax [1, 6]: 1.3 ± 0.48 h; T 1/2 [1, 5]: 1.44 ± 0.53^∗ h
5 | O=C(O)C1=CO[C@@H](O[C@@H]2O[C@H](CO)[C@@H](O)[C@H](O)[C@H]2O)[C@@H]2C(CO)=CC[C@H]12 [Geniposidic acid] | 1020 ± 450 ng/mL | 670 ± 432 ng/mL | 398 ± 108 ng/mL | 2.52 ± 0.64 h | 2.93 ± 3.45 h | 3.33 ± 1.63 h | 3.33 ± 3.43 h | 1.78 ± 0.44 h | 107% | 94.7% | 96.3% | 98.0% | 96.4% | 101% | 106% | 96.4% | 107% | 99.9% | 96.7% | 108% | AUC(0–t24) ratio relative to CGF ([1]; GCGF vs CGF (CGF = 1)): 0.39; AUC(0–t24) ratio relative to CGF ([1]; GIGF vs CGF (CGF = 1)): 0.15; AUC(0–t24) ratio relative to CGF ([1]; SGF vs CGF (CGF = 1)): 0.22; Cmax [1, 6]: 272 ± 164 ng/mL; half-life [1, 5]: 1.72 ± 0.69 h; half-life [1, 6]: 1.5 ± 0.42 h; Tmax [1, 6]: 2.4 ± 1.26 h
6 | CC(/C=C/C=C(\C)C(=O)O[C@@H]1O[C@H](CO)[C@@H](O)[C@H](O)[C@H]1O)=C\C=C\C=C(C)\C=C\C=C(/C)C(=O)O[C@@H]1O[C@H](CO[C@@H]2O[C@H](CO)[C@@H](O)[C@H](O)[C@H]2O)[C@@H](O)[C@H](O)[C@H]1O [crocin II] |  |  |  |  |  |  |  |  |  |  |  |  |  |  |  |  |  |  |  |  | Detection in rat plasma ([1]; plasma samples after oral administration of GF extracts): not detected
7 | CC(/C=C/C=C(\C)C(=O)O[C@@H]1O[C@H](CO[C@@H]2O[C@H](CO)[C@@H](O)[C@H](O)[C@H]2O)[C@@H](O)[C@H](O)[C@H]1O)=C\C=C\C=C(C)\C=C\C=C(/C)C(=O)O[C@@H]1O[C@H](CO[C@@H]2O[C@H](CO)[C@@H](O)[C@H](O)[C@H]2O)[C@@H](O)[C@H](O)[C@H]1O [crocin I] |  |  |  |  |  |  |  |  |  |  |  |  |  |  |  |  |  |  |  |  | Detection in rat plasma [3]: not detected
